Laboratory results from patent US11590093B2, “Kit, composition, and combination therapy for fragile X syndrome” (priority 2018, dated 2023).
Entries after “also recorded” stand apart in the source; their conditions may differ.

Columns and labels:
Conditions in all cases: osmotic minipumps s.c. 15 days, sulindac 5 mg/kg, metoprolol 10 mg/kg, ibudilast 3 mg/kg, sertraline 1 mg/kg, quercetin 1 mg/kg (100 mg/kg in combination), cannabidiol 5 mg/kg
[1] = test system: Fmr1 KO2 mice; experiment: Social interaction, three-chambered sociability task; type: in vivo
Procedure: In the three-chambered sociability task, a subject mouse was evaluated for its exploration of a novel social stimulus (novel mouse). The three-chambered social approach task monitors direct social approach behaviors when a subject mouse is presented with the choice of spending time with either a novel mouse or an empty cup. Sociability is defined as the subject mouse spending more time in the chamber containing the mouse than in the empty chamber. Preference for social novelty is defined as spending more time in the chamber with the novel mouse. The apparatus is a rectangular three-chamber box, where each chamber measures 20 cm (length)×40.5 cm (width)×22 cm (height). Dividing walls are made from clear perplex, with small openings (10 cm width×5 cm height) that allow access into each chamber. The three chamber task was lit from below (10 lux). The mice were allowed to freely explore the three-chamber apparatus over three 10 min trials. During the trial one wire cup was placed upside down in one of the side chambers and a novel mouse was placed under another wire cup in the other side chamber (novel mouse stimulus), leaving the middle chamber empty. The location of the novel mouse across trials was counterbalanced to minimize any potential confound due to a preference for chamber location. The time spent exploring the novel mice was scored as exploration ratio.

[2] = test system: Fmr1 KO2 mice
From the text: (§1) The Fmr1 KO2 it is both, protein and mRNA null. In this study we used Fmr1 KO2 and wild-type (WT) littermates generated on a C57BL/6J background and repeatedly backcrossed onto a C57BL/6J background for more than eight generations.
(§2) There were four treatment groups per compound/compound combination in the study with 10 male mice used per treatment group (all at 8 weeks of age): Group 1: Fmr1 KO2 mice treated with vehicle (Fmr1 KO2-V), Group 2: wild-type littermate mice treated with vehicle (WT-V), Group 3: Fmr1 KO2 mice treated with compounds (Fmr1 KO—[name of drug(s)]) and Group 4: wild-type littermate mice treated with compounds (WT—[name of drug(s)]).
The dependent measure used in contextual fear conditioning was a freezing response following a pairing of an unconditioned stimulus (foot shock), with a conditioned stimulus, a particular context. Freezing is a species-specific response to fear, which has been defined as “absence of movement except for respiration”. This may last for seconds to minutes depending on the strength of the aversive stimulus, the number of presentations, and the degree of learning achieved by the subject. Testing involved placing the animal in a novel environment (dark chamber), providing an aversive stimulus (a 1-sec electric shock, 0.2 mA, to the paws), and then removing it.

[3] = test system: Fmr1 KO2 mice; remark: listed apart in the source
From the text: as §1, §2
The test was performed in individual cages. Normal bedding covered the floor to a depth of 0.5 cm. Each cage was supplied with a “Nestlet,” a 5 cm square of pressed cotton batting (Ancare). Mice were placed individually into the nesting cages 1 hr. before the dark phase, and the results were assessed the next morning. Nest building was scored on a 5 point scale.
Score 1: The Nestlet was largely untouched (>90% intact).
Score 2: The Nestlet was partially torn up (50-90% remaining intact).
Score 3: The Nestlet was mostly shredded but often there was no identifiable nest site: <50% of the Nestlet […]

[4] = test system: Fmr1 KO2 mice; experiment: Open field (hyperactivity, locomotor activity); type: in vivo
From the text: as §1, §2
The open-field apparatus was used to test hyperactivity. The apparatus was a gray PVC-enclosed arena […] divided into a 10×10 cm grid. Mice were brought to the experimental room 5-20 min before testing. A mouse was placed into a corner square facing the corner and observed for 3 min. The number of squares entered by the whole body (locomotor activity) were counted. The movement of the mouse around the field was recorded with a video tracking device for 3 min (version NT4.0, Viewpoint).

SMILES	Sociability (exploration of novel mouse) [1]	Sociability (exploration of novel mouse) ([1]; listed as Sulindac)	Contextual fear conditioning (learning and memory) [2]	Nesting behavior [3]	Open field: hyperactivity [4]
CC1=C(CC(=O)O)c2cc(F)ccc2/C1=C\c1ccc([S+](C)[O-])cc1 (stereo not drawn) [sulindac, (Z)-5-fluoro-2-methyl-1-[[p-(methylsulfinyl)phenyl]methylene]-1H-indene-3-acetic acid]	partially rescuing contextual fear conditioning and sociability; also recorded: neither sulindac nor ibudilast alone rescues sociability; also recorded: neither sulindac nor sertraline alone rescues sociability or fear conditioning	partially improved such impairment	ameliorates the Fmr1 KO deficit in learning and memory; also recorded: partially rescuing contextual fear conditioning and sociability; also recorded: neither sulindac nor sertraline alone rescues sociability or fear conditioning; also recorded: neither sulindac nor quercetin alone fully rescues fear conditioning	normalization in nesting behavior; also recorded: fully rescuing open field and nesting behavior	normalizes hyperactivity; also recorded: fully rescuing open field and nesting behavior
COCCc1ccc(OCC(O)CNC(C)C)cc1.O=C(O)C(O)C(O)C(=O)O (racemic) [metoprolol, (±) 1-(Isopropylamino)-3-[p-(β-methoxyethyl)phenoxy]-2-propanol (+)-tartrate salt]	No significant difference was found in sociability; also recorded: partially rescue nesting behavior and sociability	–	fails to improve the learning deficits	partially rescued; also recorded: partially rescue nesting behavior and sociability	normalized Fmr1 KO2 mice hyperactivity; also recorded: normalize hyperactivity
O=c1c(O)c(-c2ccc(O)c(O)c2)oc2cc(O)cc(O)c12 [quercetin]	–	–	neither sulindac nor quercetin alone fully rescues fear conditioning	–	–
CN[C@H]1CC[C@@H](c2ccc(Cl)c(Cl)c2)c2ccccc21 [sertraline]	neither sulindac nor sertraline alone rescues sociability or fear conditioning	–	neither sulindac nor sertraline alone rescues sociability or fear conditioning	–	–
